Patent publication US11110070B2 (priority 2015, dated 2021)
“Also recorded” adds a separate entry of the source.

Columns and labels:
C57BL/6NTac mice = experiment: NSF in CORT model; type: in vivo; conditions: ketamine 10 and 90 mg kg^−1 before CORT
Protocol: Experiment 5 (Pre-ketamine and pre-fluoxetine corticosterone (CORT)): C57BL16NTac mice were injected with ketamine (10, 30, 90 mg kg^−1, i.p.) 1 week before the start of CORT, or administered fluoxetine (18 mg kg^−1 per day) in the drinking water for 3 weeks before the start of CORT. Ketamine was purchased from Merial (100 mg/ml stock solution). Fluoxetine hydrochloride (160 μg/mL, equivalent to 18 mg kg^−1 per day in the drinking water) was purchased from Anawa Trading (Zurich, Switzerland) and dissolved in 0.45% hydroxypropyl-β-cyclodextrin (β-CD) (Sigma-Aldrich, Saint-Quentin Fallavier, France) solution. Following ketamine or fluoxetine treatment, CORT was administered for 3 weeks in the drinking water. CORT (4-pregnen-11b-DIOL-3 20-DIONE 21-hemisuccinate) (35 μg/ml) from. Sigma Aldrich (Saint-Quentin Fallavier, France) was dissolved in vehicle (0.45% β-CD). Control animals received vehicle (0.45% β-CD) throughout the duration of the experiment. […]
Testing was performed as previously described (A13). […] The latency of the mice to begin eating was recorded. Immediately after the latency was recorded, the food pellet was removed from the arena. The mice were then placed into a cage and the amount of food consumed in 5 min was measured (home cage consumption), followed by an assessment of post-restriction weight. […]

129S6/SvEvTac mice = experiment: Fighting behavior during SD bouts; type: in vivo; conditions: for latency of the CD-1 to attack the 129S6/SvEv mouse: vs SD-Sal
Protocol: Adult aggressor CD-1 male mice were single-housed in Macrolon® polycarbonate resin cages (15.25 in×7.8 in×9.5 in) (Animal Care Systems, Inc., Centennial, Colo.). Male 129S6/SvEvTac mice (9 weeks of age) were subsequently placed into the resident. CD-1 mouse's cage. Three antagonistic encounters were allowed between the CD-1 mouse and the intruder. Each of these encounters typically lasted less than 5 min. Following the encounters, mice were separated by a polished stainless steel cage divider (Animal Care Systems, Inc., Centennial, Colo., P/N C79171), which allowed for olfactory and auditory communication, but limited visual or tactile contact. The partition was removed daily for 2 weeks and 3 antagonistic encounters were allowed between the mice each day. This procedure consistently yielded a submissive phenotype in the experimental intruder mice. Control (Ctrl) mice were group housed 4 to 5 per cage in Macrolon® polycarbonate resin cages without dividers.

chronic PTSD = conditions: intravenous infusion; compared with midazolam; cited from earlier work
[1] = tested on: adult hippocampal neurogenesis; experiment: Doublecortin and Ki67 immunohistochemistry, dentate gyrus; type: in vivo, mice; conditions: for number of Ki67+ cells: ketamine vs saline (FIG. 6K)
Protocol: Mice were deeply anesthetized with ketamine (100 mg kg) and transcardially perfused with IX phosphate buffer saline (PBS), followed by chilled 4% paraformaldehyde (PFA)/IX PBS (A15), Brains were post-fixed overnight in 4% PFA at 4° C., then cryoprotected in 30% sucrose/1× PBS, and stored at 4° C. Serial coronal sections (35 μm) were cut through the entire hippocampus on a cryostat and stored in IX PBS with 0.1% NaN3. Doublecortin (DCX) immunohistochemistry was performed as previously described (A15). For DCX immunohistochemistry, sections were washed in 1× PBS containing 0.5% Triton and then quenched in 0.3% H2O2 in IX PBS/CH3OH (1:1) for 15 min at room temperature. Sections were blocked in 10% normal donkey serum in 1× PBS with 0.5% Triton X-100 for 2 h at room temperature. Incubation with primary antibody was performed at 4° C. overnight (goat anti-DCX, 1:500, Santa Cruz Biotechnology, Santa Cruz, Calif., #SC 8,066) in 1× PBS with 0.5% Triton X-100. Sections were then incubated with a biotinylated secondary antibody (donkey anti-goat; 1:250, Jackson lmmunoResearch, West Grove, Pa.) for 2 h at room temperature. Sections were treated with avidin-biotin-peroxidase complex (ABC Elite Kit, Vector Labs, Burlingame, Calif.) followed by 3,3′ diaminobenzidine as a substrate for staining (Vector, Burlingame, Calif.).
Ki67 immunohistochemistry was performed as previously described (A16). For Ki67 immunohistochemistry, sections were washed in 1× PBS containing 0.5% Triton, and then blocked in 10% normal donkey serum in 1× PBS with 0.5% Triton X-100 for 2 h at room temperature. Incubation with primary antibody was performed at 4° C. overnight (rabbit anti-Ki67, 1:100, Vector Laboratories. Burlingame, Calif., #VP-RM04) in 1× PBS with 0.5% Triton X-100. Sections were then incubated with a biotinylated secondary antibody (donkey anti-rabbit; 1:250, Jackson ImmunoResearch, West Grove, Pa.) for 2 h at room temperature. Sections were treated with avidin-biotin-peroxidase complex (ABC Elite Kit, Vector Labs, Burlingame, Calif.) followed by 3,3′ diaminobenzidine as a substrate for staining (Vector, Burlingame, Calif.).
An investigator blind to treatment used a Zeiss Axioplan-2 upright microscope (Oberkochen, Germany) to count cells bilaterally in the granule cell layer of the dentate gyms throughout the entire rostra-caudal axis of the hippocampus (HPC). Every sixth section throughout the entire extent of the HPC was included in the analysis. Cells were counted bilaterally using a 20× objective. The average cells per section are presented throughout the text.

patients with MDD = conditions: cited from earlier work
[2] = Body weight loss before NSF in SD experiments; type: in vivo; conditions: SD mice; ketamine after SD; vs saline
Protocol: Testing was performed as previously described (A13). Briefly, the testing apparatus consisted of a plastic box (50×50×20 cm). The floor was covered with approximately 2 cm of wooden bedding and the arena was brightly lit (1100-1200 lux). For 129S6/SvEv experiments, mice were food restricted for 12 h. For the C57BL/6N experiments, mice were food restricted for 24 h. All food was removed from the home cage. At the time of testing, a single pellet of food (regular chow) was placed on a white paper platform positioned in the center of the box. Each animal was placed in a corner of the box, and a stopwatch was immediately started. The latency of the mice to begin eating was recorded. Immediately after the latency was recorded, the food pellet was removed from the arena. The mice were then placed into a cage and the amount of food consumed in 5 min was measured (home cage consumption), followed by an assessment of post-restriction weight. We used the Kaplan-Meier survival analysis due to the lack of normal distribution of data. The Mantel-Cox log-rank test was used to evaluate differences between the experimental groups.

SMILES: CNC1(c2ccccc2Cl)CCCCC1=O (racemic) [ketamine, (RS)-2-(2-chlorophenyl)-2-(methylamino)cyclohexanone]
- latency to feed in NSF (C57BL/6NTac mice): prevented the chronic CORT-induced increase in latency to feed; also recorded: decreased the latency to feed
- average immobility during week 2 of SD bouts (129S6/SvEvTac mice; SD-K vs SD-Sal): significantly decreased; also recorded: significantly altered
- average immobility time during week 1 of SD bouts (129S6/SvEvTac mice; all groups): not significantly different
- latency of the CD-1 to attack the 129S6/SvEv mouse (129S6/SvEvTac mice; ketamine 30 mg kg^−1, at the start of SD): significantly later; also recorded: only differed
- latency of the CD-1 to attack the 129S6/SvEv mouse (129S6/SvEvTac mice; ketamine 10 or 90 mg kg^−1): comparably attacked
- PTSD symptom severity (chronic PTSD): significant and rapid reduction in PTSD symptom severity
- number of Ki67+ cells ([1]; Ctrl mice): increases
- number of Ki67+ cells ([1]; SD mice): not in SD mice
- number of Ki67 cells in the dentate gyrus ([1]; ketamine administered after SD): significantly increases the number of Ki671 cells
- DCX levels ([1]; ketamine in post-SD design (FIG. 6L)): does not alter DCX levels
- adult hippocampal neurogenesis (levels of doublecortin and Ki67) ([1]; prophylactic ketamine before SD): did not observe an effect
- duration of sustained effects following the infusion (patients with MDD; in vivo): 1-2 weeks
- time to antidepressant effects following a single injection (patients with MDD; patients with MDD): 2 h
- percentage of weight loss [2]: lessened the percentage of weight loss; also recorded: attenuated this weight loss
